Reference: US11524966B1 (Valo Early Discovery, Inc., priority 2017, dated 2022)
Read-outs that look alike come from different tables or passages of the source.

Molecular target: T1, USP25 (USP25-His6, Boston Biochem E-546) (Homo sapiens, UniProt Q9UHP3)
T1 construct: His6; purchased Boston Biochem E-546
T1 sequence (Q9UHP3 1-1055): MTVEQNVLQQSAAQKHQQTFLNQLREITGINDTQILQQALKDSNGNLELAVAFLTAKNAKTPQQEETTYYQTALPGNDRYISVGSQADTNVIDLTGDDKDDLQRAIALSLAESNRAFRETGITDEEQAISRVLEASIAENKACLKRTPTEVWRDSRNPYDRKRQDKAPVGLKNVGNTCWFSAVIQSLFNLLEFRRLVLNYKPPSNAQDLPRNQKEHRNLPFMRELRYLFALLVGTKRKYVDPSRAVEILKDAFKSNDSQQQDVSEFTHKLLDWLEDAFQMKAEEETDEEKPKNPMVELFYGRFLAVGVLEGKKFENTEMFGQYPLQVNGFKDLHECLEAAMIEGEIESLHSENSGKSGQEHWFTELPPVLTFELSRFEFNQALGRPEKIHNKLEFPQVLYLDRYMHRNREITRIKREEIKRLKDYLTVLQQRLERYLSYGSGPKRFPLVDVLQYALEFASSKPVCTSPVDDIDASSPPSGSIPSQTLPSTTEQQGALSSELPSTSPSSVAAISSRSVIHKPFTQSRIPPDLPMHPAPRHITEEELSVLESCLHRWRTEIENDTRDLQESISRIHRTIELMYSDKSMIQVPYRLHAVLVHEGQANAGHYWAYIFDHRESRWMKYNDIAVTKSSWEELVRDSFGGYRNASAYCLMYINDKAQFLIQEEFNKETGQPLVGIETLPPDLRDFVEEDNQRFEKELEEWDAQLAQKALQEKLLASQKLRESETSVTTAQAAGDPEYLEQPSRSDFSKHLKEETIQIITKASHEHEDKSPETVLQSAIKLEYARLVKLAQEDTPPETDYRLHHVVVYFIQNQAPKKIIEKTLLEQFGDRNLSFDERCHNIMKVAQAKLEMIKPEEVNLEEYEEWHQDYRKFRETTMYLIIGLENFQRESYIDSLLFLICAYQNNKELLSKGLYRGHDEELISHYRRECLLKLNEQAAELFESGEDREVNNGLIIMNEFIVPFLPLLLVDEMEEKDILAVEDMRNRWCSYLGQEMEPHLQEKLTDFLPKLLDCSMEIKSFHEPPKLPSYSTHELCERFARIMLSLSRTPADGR
Test: Ubiquitin-Rhodamine 110 Assay for USP25 Activity, Example A-2
Assay type: biochemical
Conditions: Ubiquitin-Rhodamine 110 assay, read-out: USP25 A-2 IC50 range
Method in brief: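 USP25-His6 (75 pM) was preincubated with compound (10-point, 3-fold series, 25 μM to 1.3 nM) for 30 min in 20 mM Tris-HCl pH 8.0, 3 mM BME, 0.03% BGG, 0.01% Triton X-100. Ub-Rh110 (25 nM, <<Km) was then added for 45 min at room temperature, citric acid-stopped, and fluorescence read at 485/535 nm.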

| Compound | IC50 (format Example A-2) | IC50 (Example A-2) |
| --- | --- | --- |
| Cc1ccc2c(N)c(C(=O)N[C@H]3CCc4c(F)c(N5CCNCC5)cc(F)c4C3)sc2n1 (single isomer, unassigned) [Example 22-1] | > 2 µM | – |
| Cc1cnc2c(N)c(C(=O)N[C@@H]3CCc4cc(N5CC6CCC(C5)N6)cc(F)c4C3)sc2n1 (single isomer, unassigned) [Example 11-14] | – | 0.2 to 2 µM |
| COc1ccc2c(N)c(C(=O)N[C@@H]3CCc4cc(N5CC6CCC(C5)N6)ccc4C3)sc2n1 (single isomer, unassigned) [Example 11-6] | – | > 2 µM |
| Cc1ccc2c(N)c(C(=O)N[C@H]3COc4cc(N5CCNCC5)ncc4C3)sc2n1 [Example 16, (R)-3-Amino-6-methyl-N-(7-(piperazin-1-yl)-3,4-dihydro-2H-pyrano[3,2-c]pyridin-3-yl)thieno[2,3-b]pyridine-2-carboxamide] | 0.2 to 2 µM | – |
| Cc1cnc2c(N)c(C(=O)N[C@H]3CCc4cc(N5CC6CCC(C5)N6)cc(F)c4C3)sc2n1 (single isomer, unassigned) [Example 11-13] | – | > 2 µM |
| CO[C@H]1CN(c2ccc3c(n2)CC[C@H](NC(=O)c2sc4nc(C)cc(C)c4c2N)C3)C[C@@H]1N [Example 23-3, 3-amino-N-[(6S)-2-[(3S,4S)-3-amino-4-methoxypyrrolidin-1-yl]-5,6,7,8-tetrahydroquinolin-6-yl]-4,6-dimethylthieno[2,3-b]pyridine-2-carboxamide] | > 2 µM | – |
| Cc1ccc2c(N)c(C(=O)N[C@@H]3CCc4cc(N5CCNCC5)c(F)cc4C3)sc2n1 (single isomer, unassigned) [Example 21-7] | 0.2 to 2 µM | – |
| CO[C@H]1CN(c2cc(F)c3c(c2)OC[C@H](NC(=O)c2sc4nc(C)ccc4c2N)C3)C[C@@H]1N (single isomer, unassigned) [Example 10-3] | – | 0.2 to 2 µM |
| Cc1ccc2c(N)c(C(=O)N[C@@H]3CCc4cc(N5CCN[C@H](CO)C5)ccc4C3)sc2n1 (single isomer, unassigned) [Example 7-10] | – | 0.2 to 2 µM |
| Cc1ccc2c(N)c(C(=O)N[C@H]3CCc4cc(N5CCNCC5)c(F)cc4C3)sc2n1 (single isomer, unassigned) [Example 21-8] | > 2 µM | – |
| Cc1ccc2c(N)c(C(=O)N[C@H]3COc4nc(N5CCNCC5)ccc4C3)sc2n1 [Example 19, (R)-3-Amino-6-methyl-N-(7-(piperazin-1-yl)-3,4-dihydro-2H-pyrano[2,3-b]pyridin-3-yl)thieno[2,3-b]pyridine-2-carboxamide] | 0.2 to 2 µM | – |
| COc1ccc2c(N)c(C(=O)N[C@H]3CCc4cc(N5CC6CCC(C5)N6)ccc4C3)sc2n1 (single isomer, unassigned) [Example 11-5] | – | 0.2 to 2 µM |
| Cc1ccc2c(N)c(C(=O)N[C@H]3COc4cc(N5CCNCC5)cc(F)c4C3)sc2n1 [Example 10-1, (R)-3-amino-N-(5-fluoro-7-(piperazin-1-yl)chroman-3-yl)-6-methylthieno[2,3-b]pyridine-2-carboxamide] | – | 0.05 to 0.2 µM |
| Cc1ccc2c(N)c(C(=O)N[C@H]3CCc4cc(N5CCNCC5)cnc4C3)sc2n1 (single isomer, unassigned) [Example 15-2] | > 2 µM | – |
| Cc1cnc2c(N)c(C(=O)N[C@H]3CCc4cc(N5CCNC[C@H](O)C5)ccc4C3)sc2n1 (single isomer, unassigned) [Example 7-6] | – | > 2 µM |
| Cc1ccc2c(N)c(C(=O)N[C@H]3CCc4cc(N5C6CNCC5C6)ccc4C3)sc2n1 (single isomer, unassigned) [Example 11-35] | 0.2 to 2 µM | – |
| Cc1ccc2c(N)c(C(=O)N[C@@H]3CCc4c(F)c(N5CC6CCC(C5)N6)cc(F)c4C3)sc2n1 (single isomer, unassigned) [Example 22-6] | > 2 µM | – |
| Cc1ccc2c(N)c(C(=O)N[C@@H]3CCc4cc(N5CCNCC5)cnc4C3)sc2n1 (single isomer, unassigned) [Example 15-1] | > 2 µM | – |

| Compound | IC50 (format Example A-2) | IC50 (Example A-2) |
| --- | --- | --- |
| CO[C@@H]1CN(c2cc(F)c3c(c2)OC[C@H](NC(=O)c2sc4nc(C)ccc4c2N)C3)C[C@H]1N [Example 10-2, 3-amino-N-((R)-7-((3R,4R)-3-amino-4-methoxypyrrolidin-1-yl)-5-fluorochroman-3-yl)-6-methylthieno[2,3-b]pyridine-2-carboxamide] | – | 0.2 to 2 µM |
| Cc1ccc2c(N)c(C(=O)N[C@H]3CCc4cc(N5CCNCC5)cc(F)c4C3)sc2n1 (single isomer, unassigned) [Example 11-11] | – | > 2 µM |
| Cc1nc2sc(C(=O)N[C@@H]3CCc4cc(N5CC6CCC(C5)N6)ccc4C3)c(N)c2cc1F (single isomer, unassigned) [Example 11-4] | – | 0.05 to 0.2 µM |
| CCn1ccc2cc(C(=O)N[C@H]3CCc4cc(N5CC6CCC(C5)N6)ccc4C3)cnc21 (single isomer, unassigned) [Example 11-9] | – | > 2 µM |
| Cc1ccc2c(N)c(C(=O)N[C@H]3COc4cc(O[C@H]5COC6(CNC6)C5)ccc4C3)sc2n1 (single isomer, unassigned) [Example 9-2] | – | 0.05 to 0.2 µM |
| CO[C@H]1CN(c2ccc3c(n2)CC[C@@H](NC(=O)c2sc4nc(C)ccc4c2N)C3)C[C@@H]1N [Example 23-5, 3-amino-N-[(6R)-2-[(3S,4S)-3-amino-4-methoxypyrrolidin-1-yl]-5,6,7,8-tetrahydroquinolin-6-yl]-6-methylthieno[2,3-b]pyridine-2-carboxamide] | > 2 µM | – |
| Cc1ccc2c(N)c(C(=O)N[C@H]3COc4cc(N5CCNCC5)c(Cl)cc4C3)sc2n1 [Example 13-5, (R)-3-amino-N-(6-chloro-7-(piperazin-1-yl)chroman-3-yl)-6-methylthieno[2,3-b]pyridine-2-carboxamide] | > 2 µM | – |
| CCn1ccc2cc(C(=O)N[C@@H]3CCc4cc(N5CC6CCC(C5)N6)ccc4C3)nnc21 (single isomer, unassigned) [Example 11-23] | – | > 2 µM |
| Cc1ccc2c(N)c(C(=O)N[C@@H]3COc4cc(N5CCNCC5)ccc4[C@@H]3C)sc2n1 (single isomer, unassigned) [Example 11-18] | – | > 2 µM |
| Cc1cnc2c(N)c(C(=O)N[C@H]3COc4cc(N5CC6CNCC(C5)O6)cc(F)c4C3)sc2n1 [Example 10-12, N-((3R)-7-(9-oxa-3,7-diazabicyclo[3.3.1]nonan-3-yl)-5-fluorochroman-3-yl)-7-amino-3-methylthieno[2,3-b]pyrazine-6-carboxamide] | – | 0.001 to 0.05 µM |
| Cc1nc2sc(C(=O)N[C@H]3CCc4cc(N5CC6CCC(C5)N6)ccc4C3)c(N)c2cc1F (single isomer, unassigned) [Example 11-3] | – | 0.2 to 2 µM |
| Cc1cnc2c(N)c(C(=O)N[C@H]3COc4cc(N5CCNCC5)cc(F)c4C3)sc2n1 [Example 10-10, (R)-7-amino-N-(5-fluoro-7-(piperazin-1-yl)chroman-3-yl)-3-methylthieno[2,3-b]pyrazine-6-carboxamide] | – | 0.05 to 0.2 µM |
| Cc1ccc2c(N)c(C(=O)N[C@H]3COc4c(cnc(N5CC6CCC(C5)N6)c4F)C3)sc2n1 [Example 18, N-((3R)-7-(3,8-Diazabicyclo[3.2.1]octan-3-yl)-8-fluoro-3,4-dihydro-2H-pyrano[3,2-c]pyridin-3-yl)-3-amino-6-methylthieno[2,3-b]pyridine-2-carboxamide] | 0.05 to 0.2 µM | – |
| Cc1cnc2c(N)c(C(=O)N[C@@H]3CCc4cc(N5CCNC[C@H](O)C5)ccc4C3)sc2n1 (single isomer, unassigned) [Example 7-7] | – | > 2 µM |
| Cc1ccc2c(N)c(C(=O)N[C@@H]3CCc4c(ccc(N5CC6CCC(C5)N6)c4F)C3)sc2n1 (single isomer, unassigned) [Example 21-1] | > 2 µM | – |
| Cc1ccc2c(N)c(C(=O)N[C@@H]3CCc4cc(N5CCNCC5)cc(F)c4C3)sc2n1 (single isomer, unassigned) [Example 11-12] | – | 0.2 to 2 µM |
| Cc1ccc2c(N)c(C(=O)N[C@@H]3COc4cc(N5CC6CCC(C5)N6)c(F)c(F)c4C3)sc2n1 [Example 13-4, N-((3S)-7-(3,8-diazabicyclo[3.2.1]octan-3-yl)-5,6-difluorochroman-3-yl)-3-amino-6-methylthieno[2,3-b]pyridine-2-carboxamide] | 0.05 to 0.2 µM | – |
| CO[C@H]1CN(c2ccc3c(n2)CC[C@H](NC(=O)c2sc4nc(C)cnc4c2N)C3)C[C@@H]1N (single isomer, unassigned) [Example 23-1] | > 2 µM | – |
